13 compounds from patent publication US20250170141A1, “MRGPRX2 MODULATORS AND RELATED METHODS OF TREATMENT” (Escient Pharmaceuticals, Inc., priority 2023, published 2025) can be followed below.

The assay concerns the target T1, human MRGPRX2 (Homo sapiens, UniProt Q96LB1).
T1 construct: expressed in transfected cells; host or cells: CHO cells, stably transfected (G418 and Hygromycin B selection)
T1 sequence (Q96LB1 1-330): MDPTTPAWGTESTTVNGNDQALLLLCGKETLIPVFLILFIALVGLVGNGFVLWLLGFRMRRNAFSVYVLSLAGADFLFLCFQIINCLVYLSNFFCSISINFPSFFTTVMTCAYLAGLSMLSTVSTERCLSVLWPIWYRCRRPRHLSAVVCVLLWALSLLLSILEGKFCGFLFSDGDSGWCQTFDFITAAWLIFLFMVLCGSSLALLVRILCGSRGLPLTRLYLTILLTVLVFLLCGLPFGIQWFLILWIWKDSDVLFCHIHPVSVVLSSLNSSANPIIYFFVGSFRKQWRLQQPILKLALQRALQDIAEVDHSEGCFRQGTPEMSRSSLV
In words: MRGPRX2 activity: IP-One Gq HTRF assay in CHO cells, antagonism versus 0.3 uM Cortistatin-14. It counts as cell-based. The note with it: versus 0.3 uM Cortistatin-14 agonist, CHO cells expressing human MRGPRX2, read-out: MRGPRX2 Antagonist Activity. A digest of the protocol:
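CHO cells stably expressing human MRGPRX2 were treated with a 10-point compound curve (30 uM top, 1:3) plus 0.3 μM Cortistatin-14 in LiCl-containing Tris buffer, pH 8. Incubation was 1 h at 37 °C then 1 h at room temperature; IP-1 was detected by HTRF and IC50 came from the HTRF ratio.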
(In general: TR-FRET usually uses a lanthanide donor and a delayed reading to cut background.)
In the case of `O=C(c1ccccc1Cl)c1cccc2c1NC(NCc1ccccc1F)=NS2(=O)=O` [Compound 16-2, (2-chlorophenyl)(3-((2-fluorobenzyl)amino)-1,1-dioxido-4H-benzo[e][1,2,4]thiadiazin-5-yl)methanone], the IC50 was under 100 nM.

Take `COCCNC1=NS(=O)(=O)c2cccc(C(=O)c3ccccc3Cl)c2N1` [Compound 16-3, (2-chlorophenyl)(3-((2-methoxyethyl)amino)-1,1-dioxido-4H-benzo[e][1,2,4]thiadiazin-5-yl)methanone]: the IC50 fell in the range of 1000 to 2500 nM.

For `O=C(c1ccccc1Cl)c1cccc2c1NC(NCc1ncccc1C(F)(F)F)=NS2(=O)=O` [Compound 16-4, (2-chlorophenyl)(1,1-dioxido-3-(((3-(trifluoromethyl)pyridin-2-yl)methyl)amino)-4H-benzo[e][1,2,4]thiadiazin-5-yl)methanone], the IC50 is under 100 nM.

For the compound `O=C(c1ccccc1Cl)c1cccc2c1NC(NCc1ncccc1F)=NS2(=O)=O` [Compound 16-5, (2-chlorophenyl)(3-(((3-fluoropyridin-2-yl)methyl)amino)-1,1-dioxido-4H-benzo[e][1,2,4]thiadiazin-5-yl)methanone], the IC50 was in the range of 100 to 500 nM.

As for `O=C(c1ccccc1Cl)c1c(F)ccc2c1NC(NCc1ncccc1F)=NS2(=O)=O` [Compound 16-6, (2-chlorophenyl)(6-fluoro-3-(((3-fluoropyridin-2-yl)methyl)amino)-1,1-dioxido-4H-benzo[e][1,2,4]thiadiazin-5-yl)methanone], the IC50 is 100 to 500 nM.

For `O=S1(=O)N=C(NCc2ncccc2F)Nc2c(NCc3ccccc3Cl)cccc21` [Compound 17-1, 5-((2-chlorobenzyl)amino)-3-(((3-fluoropyridin-2-yl)methyl)amino)-4H-benzo[e][1,2,4]thiadiazine 1,1-dioxide], the IC50 is over 2500 nM.

As to `O=S1(=O)N=C(NCc2ncccc2F)Nc2c1ccc(F)c2C#Cc1ccccc1` [Compound 19-1, 6-fluoro-3-(((3-fluoropyridin-2-yl)methyl)amino)-5-(phenylethynyl)-4H-benzo[e][1,2,4]thiadiazine 1,1-dioxide], the IC50 was 100 to 500 nM.

On to `CCC(c1ccccc1F)c1c(F)ccc2c1NC(NCc1ncccc1F)=NS2(=O)=O` (stereo not shown) [Compound 20-1, 6-fluoro-5-(1-(2-fluorophenyl)propyl)-3-(((3-fluoropyridin-2-yl)methyl)amino)-4H-benzo[e][1,2,4]thiadiazine 1,1-dioxide], for which the IC50 is under 100 nM.

On to `CCC(c1ccccc1F)c1cccc2c1NC(NCc1ncccc1F)=NS2(=O)=O` (stereo not shown) [Compound 21-1, 5-(1-(2-fluorophenyl)propyl)-3-(((3-fluoropyridin-2-yl)methyl)amino)-4H-benzo[e][1,2,4]thiadiazine 1,1-dioxide], for which the IC50 was under 100 nM.

On to `CC(c1ccccc1)c1c(F)ccc2c1NC(NCc1cccc(F)c1)=NS2(=O)=O` (stereo not shown) [Compound 22-1, 6-fluoro-3-((3-fluorobenzyl)amino)-5-(1-phenylethyl)-4H-benzo[e][1,2,4]thiadiazine 1,1-dioxide], for which the IC50 was under 100 nM.

As to `Cc1ccccc1C(C)c1c(F)ccc2c1NC(NCc1cccc(F)c1)=NS2(=O)=O` (stereo not shown) [Compound 22-2, 6-fluoro-3-((3-fluorobenzyl)amino)-5-(1-(o-tolyl)ethyl)-4H-benzo[e][1,2,4]thiadiazine 1,1-dioxide], the IC50 is under 100 nM.

Consider `CC(c1c(F)ccc2c1NC(NCc1cccc(F)c1)=NS2(=O)=O)C1CCOCC1` (stereo not shown) [Compound 22-3, 6-fluoro-3-((3-fluorobenzyl)amino)-5-(1-(tetrahydro-2H-pyran-4-yl)ethyl)-4H-benzo[e][1,2,4]thiadiazine 1,1-dioxide], for which the IC50 is under 100 nM.

With `CC(C)CC(C)c1c(F)ccc2c1NC(NCc1cccc(F)c1)=NS2(=O)=O` (stereo not shown) [Compound 22-4, 6-fluoro-3-((3-fluorobenzyl)amino)-5-(4-methylpentan-2-yl)-4H-benzo[e][1,2,4]thiadiazine 1,1-dioxide], the IC50 is under 100 nM.
